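How tested: cells in 96-well plates exposed to compound for 48 hours at five concentrations. At the GI50, growth is halved.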 Active and inactive are the calls of the source. No stated cut-off is given here; in the data, active = GI50 up to about 1.1 µM and inactive = higher.
How the values were obtained:
Experiment in all cases: NCI-60 cell line screen, 48 h
[1] = tested on: DLD-1
[2] = tested on: M19-MEL
[3] = tested on: SNB-78
[4] = tested on: DMS-273
[5] = tested on: DMS-114
[6] = tested on: XF498
[7] = tested on: T47D
[8] = tested on: KM-20L2
[9] = tested on: RXF 631

Clc1ccc(OCc2nnc3n2N=C(c2ccccc2)CS3)c(Cl)c1
GI50 [1]: 7.26 µM (inactive)
GI50 [2]: > 100 µM (inactive)
GI50 [3]: 9.42 µM (inactive)
GI50 [4]: 5.56 µM (inactive)
GI50 [5]: > 100 µM (inactive)
GI50 [6]: > 100 µM (inactive)

COP(=O)(OC)C(C)(C)NC(=O)NC(F)(F)F
GI50 [7]: > 100 µM (inactive)

CCOC(=O)C1CCC(=O)N1C(=O)c1cccc(Cl)c1 (configuration not stated)
GI50 [7]: > 100 µM (inactive)

CCNC1=C(NC(=O)c2ccccc2)C(=O)c2ccccc2C1=O
GI50 [7]: 14.1 µM (inactive)

N#CCCN(c1ccc(/C=N/c2ccc(C(=O)O)cc2)cc1)S(=O)(=O)c1ccccc1
GI50 [1]: > 100 µM (inactive)
GI50 [2]: > 100 µM (inactive)
GI50 [8]: > 100 µM (inactive)
GI50 [3]: > 100 µM (inactive)
GI50 [4]: > 100 µM (inactive)
GI50 [5]: > 100 µM (inactive)
GI50 [6]: > 100 µM (inactive)

O=C(NCCCCNCCCNC(=O)c1cc(-c2ccccc2)nc2ccccc12)c1cc(-c2ccccc2)nc2ccccc12
GI50 [7]: 1.87 µM (inactive)

COc1ccc2c(c1)N=C1CSC(c3cc([N+](=O)[O-])ccc3Cl)N1C2 (configuration not stated)
GI50 [7]: 29.5 µM (inactive)

O=C(O)c1nc2ccc(C(F)(F)F)cc2nc1NCc1ccc(F)cc1
GI50 [7]: 20.8 µM (inactive)

C=CCc1ccc(Oc2cc(CC=C)c3c(c2O)O[C@@H](CO)[C@H]3c2ccc(O)c(-c3cc(CC=C)ccc3O)c2)cc1
GI50 [1]: 52.1 µM (inactive)
GI50 [2]: 42.2 µM (inactive)
GI50 [8]: 32.9 µM (inactive)
GI50 [3]: 52 µM (inactive)
GI50 [4]: 42.9 µM (inactive)
GI50 [5]: 22.5 µM (inactive)

CCOC(=O)O/N=C1/C(=C2/C(=O)Nc3ccccc32)Nc2ccccc21
GI50 [7]: 3.93 µM (inactive)

O=S1(=O)CCN(Cc2ccccn2)CC1
GI50 [7]: > 100 µM (inactive)

CC1=C(C)C2(C#N)C(=O)N3C(=NC(c4ccccc4)NC3c3ccccc3)C2(C#N)C(c2ccccc2)N1 (configuration not stated)
GI50 [7]: > 100 µM (inactive)

CC1=NC(=Cc2ccc([N+](=O)[O-])cc2)C(=O)N1n1c(-c2ccccc2)nc2ccccc2c1=O
GI50 [7]: 39.8 µM (inactive)

COC(=O)CC1C=CC(C)(OC)OO1 (configuration not stated)
GI50 [7]: > 100 µM (inactive)

CC(=O)Nc1ccc(S(=O)(=O)N/N=C(\C)CN2C(=O)c3ccccc3C2=O)cc1
GI50 [1]: > 100 µM (inactive)
GI50 [2]: > 100 µM (inactive)
GI50 [8]: > 100 µM (inactive)
GI50 [3]: > 100 µM (inactive)
GI50 [4]: > 100 µM (inactive)

Cc1cc(C(F)(F)F)cc(-n2nc(NS(=O)(=O)c3cc(C)c(Cl)cc3S)nc2N)n1
GI50 [7]: 57.1 µM (inactive)

Cc1ccc(NC(=O)CCCC(=O)CC(=O)c2ccc(Br)cc2)cc1
GI50 [1]: > 100 µM (inactive)
GI50 [2]: > 100 µM (inactive)
GI50 [8]: > 100 µM (inactive)
GI50 [3]: > 100 µM (inactive)
GI50 [4]: > 100 µM (inactive)
GI50 [9]: > 100 µM (inactive)
GI50 [5]: > 100 µM (inactive)

COC(=O)c1ccccc1C1CN=NC12Cc1ccc3ccccc3c1C2=O (configuration not stated)
GI50 [7]: 21.1 µM (inactive)

C1=C\CCCCN2C[C@H]3CCCC/C=C\CCCCN4CC[C@@H]([C@H](CCCCCC/1)C4)[C@H](C3)C2
GI50 [7]: 2.61 µM (inactive)

O=C(/C=C/c1ccc2c(c1)OCO2)NCc1ccco1
GI50 [7]: 19.4 µM (inactive)

COC(=O)CC(NC(=O)OCc1ccccc1)C(C(=O)OCc1ccccc1)C(C)(OC)OC (configuration not stated)
GI50 [1]: 20.9 µM (inactive)
GI50 [2]: 27.7 µM (inactive)
GI50 [8]: 45.4 µM (inactive)
GI50 [4]: 33.3 µM (inactive)
GI50 [5]: 22.8 µM (inactive)
GI50 [6]: 14.1 µM (inactive)

O=C1c2ccccc2C(=O)N1c1nc(-c2ccc(Cl)cc2)cc(N2N=C(c3ccc(Br)cc3)CC2c2ccccc2)n1 (configuration not stated)
GI50 [7]: 1.88 µM (inactive)

COc1ccc(N2C(=O)CC(=O)N(NC(=O)C(C)Oc3ccccc3C)C2=S)cc1 (configuration not stated)
GI50 [7]: > 100 µM (inactive)

FC(F)(F)C1(c2ccccc2)SCc2nc3ccccc3n21 (configuration not stated)
GI50 [7]: 62.8 µM (inactive)

FC1(F)ON2CCc3ccccc3C2[C@H]1c1ccccc1 (some centres not stated)
GI50 [7]: 55.8 µM (inactive)

O=C1C=C(Nc2ccc(Cl)cc2Cl)c2ccccc2C1=O
GI50 [1]: 44.5 µM (inactive)
GI50 [2]: 13.5 µM (inactive)
GI50 [8]: > 100 µM (inactive)
GI50 [3]: 44.1 µM (inactive)
GI50 [4]: 27.4 µM (inactive)
GI50 [9]: 34.5 µM (inactive)
GI50 [5]: 23.6 µM (inactive)

CCN(CC)CCn1c(=O)c2ccccc2n2c3c(=O)n(C)c(=O)n(C)c3nc12
GI50 [7]: 2.15 µM (inactive)

COC(=O)C(Br)C1CCc2ccccc21 (configuration not stated)
GI50 [1]: > 100 µM (inactive)
GI50 [2]: > 100 µM (inactive)
GI50 [8]: > 100 µM (inactive)
GI50 [4]: > 100 µM (inactive)
GI50 [9]: > 100 µM (inactive)
GI50 [5]: > 100 µM (inactive)

NC(=O)NCCCC(NC(=O)OCCCCCn1ccc(=O)[nH]c1=O)C(=O)O (configuration not stated)
GI50 [7]: > 100 µM (inactive)

CC(C)C1=CC(=O)C(C)(C2=NC(C)(C)CO2)c2ccccc21 (configuration not stated)
GI50 [1]: > 100 µM (inactive)
GI50 [2]: > 100 µM (inactive)
GI50 [8]: > 100 µM (inactive)
GI50 [4]: > 100 µM (inactive)
GI50 [9]: 95.7 µM (inactive)
GI50 [5]: 51.4 µM (inactive)
GI50 [6]: > 100 µM (inactive)

Cc1cc(N2CCN(C)CC2)n2nc(-c3ccc(Cl)cc3)nc2n1
GI50 [7]: > 100 µM (inactive)

CCCCCCCC/C=C/CCCCCCCC1CC(O)C(=O)O1 (configuration not stated)
GI50 [7]: 39.5 µM (inactive)

Cc1ccc(NC(=O)C(=O)Cc2cccc[n+]2[O-])cc1C
GI50 [1]: > 100 µM (inactive)
GI50 [2]: > 100 µM (inactive)
GI50 [8]: > 100 µM (inactive)
GI50 [3]: > 100 µM (inactive)
GI50 [5]: > 100 µM (inactive)
GI50 [6]: > 100 µM (inactive)

O=c1cc(NNc2cccc3ccccc23)[nH]c(=O)[nH]1
GI50 [7]: 10.2 µM (inactive)

From ChEMBL document CHEMBL1201862, “PubChem BioAssay data set” (2004)
